In one test the target is 5HT7 receptor (Homo sapiens, UniProt P34969). The experiment in a line: 5HT7 agonist functionality (EC50 agonist). The conditions noted are these: screening data, agonist reference hit. Type of test: cell-based.
The target in test [1] is T1, Cloned Human Serotonin Receptor, Subtype 7 (h5HT7), expressed in CHO cells (Homo sapiens, UniProt P34969).
T1 construct: purchased PerkinElmer 6120512; host or cells: CHO cells
The experiment in a line: Radioligand binding assay, [125I]LSD, cloned human 5HT7 receptor on Flashplate. The conditions noted are these: for inhibition at 1 µM: read-out: %-Inhib. (10^−6 M). The protocol: The protocol assay was essentially the recommended protocol in the Technical Data Sheet by PerkinEmer Life and Analytical Sciences. The Mass membrane protein/well was typically 12 μg and the Receptor/well was about 9-10 fmoles. The Flashplate were let equilibrate at room temperature for one hour before the addition of the components of the assay mixture. The binding buffer was: 50 mM Tris-HCl, pH 7.4, containing 10 mM MgCl2, 0.5 mM EDTA and 0.5% BSA. […] Nonspecific binding was determined with 50 μM of Clozapine. The assay volume was 25 μl. TopSeal-A were applied onto Flashplate microplates and they were incubated at room temperature for 240 minutes in darkness.

Where [2] appears, read: compound at 10^−6 M, radioligand [125I]LSD 0.82 nM.

What is called EC50 is the concentration needed to bring the measured effect to its halfway point. A high value points to a need for much substance. For orientation: IC50 means the concentration needed to halve the response being measured. Low readings indicate greater potency, high ones weaker potency.

Structures are written as SMILES. Where two headings read alike, the source gives them in different places.

T1 sequence (P34969 whole entry): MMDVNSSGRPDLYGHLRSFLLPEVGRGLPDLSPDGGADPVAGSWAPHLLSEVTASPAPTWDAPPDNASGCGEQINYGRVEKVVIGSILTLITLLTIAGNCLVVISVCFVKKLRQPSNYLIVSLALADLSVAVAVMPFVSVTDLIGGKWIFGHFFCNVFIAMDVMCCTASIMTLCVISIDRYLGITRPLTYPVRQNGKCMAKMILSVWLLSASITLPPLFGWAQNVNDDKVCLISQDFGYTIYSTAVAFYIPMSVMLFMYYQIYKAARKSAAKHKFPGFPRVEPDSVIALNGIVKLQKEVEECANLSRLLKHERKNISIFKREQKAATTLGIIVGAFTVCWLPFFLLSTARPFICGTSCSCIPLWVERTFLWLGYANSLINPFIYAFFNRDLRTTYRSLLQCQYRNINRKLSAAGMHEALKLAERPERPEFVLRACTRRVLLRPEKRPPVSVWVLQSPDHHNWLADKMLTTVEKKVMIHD
Chain of 5HT7 receptor (P34969 whole entry): as above

The molecule `COc1ccc(C(C)C)cc1CN1CCN(c2cccc3[nH]ccc23)CC1` [Ex 29, 4-(4-(5-isopropyl-2-methoxybenzyl)piperazin-1-yl)-1H-indole] yielded an EC50 on 5HT7 receptor of 6.62 nM. The “affinity for the 5HT7 receptor (in words)” value in test [1] is “good affinity”.
Turning to `O=[N+]([O-])c1cccc(CN2CCN(c3cccc4[nH]ccc34)CC2)c1` [Ex 36, 4-(4-(3-nitrobenzyl)piperazin-1-yl)-1H-indole], the inhibition at 1 µM in test [1] (setting [2]) is 41.5%.
With `Clc1ccc(CN2CCN(c3cccc4[nH]ccc34)CC2)c(Cl)c1` [Ex 35, 4-(4-(2,4-dichlorobenzyl)piperazin-1-yl)-1H-indole], the inhibition at 1 µM in test [1] (setting [2]) came out at 51.3%.
As for `COc1ccc(CN2CCN(c3cccc4[nH]ccc34)CC2)c(OC)n1` [Ex 22, 4-(4-((2,6-dimethoxypyridin-3-yl)methyl)piperazin-1-yl)-1H-indole], in test [1] (setting [2]), the inhibition at 1 µM came to 114%. Also, in test [1] (radioligand [125I]LSD 0.82 nM), the IC50 was found to be 109 nM.
On to `N#CCCCN1CCN(c2cccc3[nH]ccc23)CC1` [Ex 7, 4-(4-(1H-indol-4-yl)piperazin-1-yl)butanenitrile], for which the IC50 in test [1] (radioligand [125I]LSD 0.82 nM) worked out at 713 nM. Besides, the inhibition at 1 µM in test [1] is 49.6%.

The values above are taken from US20110183991A1, “5HT7 RECEPTOR LIGANDS AND COMPOSITIONS COMPRISING THE SAME” (LABORATORIOS DEL DR. ESTEVE, S.A., priority 2008, published 2011).
